Experiments:
bedstraw = test: Test B pre/postemergence bedstraw; type: in vivo, Galium aparine; details: for Plant response rating, Bedstraw: Rate 125 g/ha
Method in brief: (§1)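 Herbicidal effect was estimated by eye on a ten-point control scale after plants spent twelve to sixteen days in a greenhouse following soil or foliar treatment. Foliar sprays targeted plants at one to four leaves; all doses were formulated in a non-phytotoxic solvent with surfactant.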

blackgrass = test: Test B pre/postemergence blackgrass; type: in vivo, Alopecurus myosuroides
Method in brief: as §1

surinam grass = test: Test B pre/postemergence surinam grass; type: in vivo, Brachiaria decumbens
Method in brief: as §1

cocklebur = test: Test B pre/postemergence cocklebur; type: in vivo, Xanthium strumarium
Method in brief: as §1

corn = test: Test B pre/postemergence corn; type: in vivo, Zea mays
Method in brief: as §1

crabgrass = test: Test B pre/postemergence crabgrass; type: in vivo, Digitaria sanguinalis
Method in brief: as §1

giant foxtail = test: Test B pre/postemergence giant foxtail; type: in vivo, Setaria faberii
Method in brief: as §1

morningglory = test: Test B pre/postemergence morningglory; type: in vivo, Ipomoea hederacea
Method in brief: as §1

pigweed = test: Test B pre/postemergence pigweed; type: in vivo, Amaranthus retroflexus
Method in brief: as §1

rape = test: Test B pre/postemergence rape; type: in vivo, Brassica napus
Method in brief: as §1

soybean = test: Test B pre/postemergence soybean; type: in vivo, Glycine max
Method in brief: as §1

sugar beet = test: Test B pre/postemergence sugar beet; type: in vivo, Beta vulgaris
Method in brief: as §1

velvetleaf = test: Test B pre/postemergence velvetleaf; type: in vivo, Abutilon theophrasti
Method in brief: as §1

wheat = test: Test B pre/postemergence wheat; type: in vivo, Triticum aestivum
Method in brief: as §1

wild oat = test: Test B pre/postemergence wild oat; type: in vivo, Avena fatua
Method in brief: as §1

purple nutsedge = test: Test B pre/postemergence purple nutsedge; type: in vivo, Cyperus rotundus
Method in brief: as §1

[1] = Preemergence, Rate 31 g/ha, visual rating, scale 0 to 10 (0 no effect, 10 complete control)
[2] = Preemergence, Rate 62 g/ha, scale of 0 to 10 where 0 is no effect and 10 is complete control
[3] = Preemergence, Rate 250 g/ha, scale 0 (no effect) to 10 (complete control)
[4] = Preemergence, Rate 125 g/ha, scale of 0 to 10 where 0 is no effect and 10 is complete control
[5] = Postemergence, Rate 62 g/ha, scale of 0 to 10, 0 is no effect, 10 is complete control
[6] = Postemergence, Rate 250 g/ha, scale of 0 to 10, 0 is no effect, 10 is complete control
[7] = Preemergence, Rate 62 g/ha, scale 0 to 10 (0 no effect, 10 complete control)
[8] = Preemergence, Rate 500 g/ha, scale of 0 to 10 where 0 is no effect and 10 is complete control
[9] = Postemergence, Rate 125 g/ha, scale of 0 to 10 where 0 is no effect and 10 is complete control
[10] = Postemergence, Rate 500 g/ha, scale of 0 to 10 where 0 is no effect and 10 is complete control

CC(C)N(C(=O)n1oc(=O)n(Cc2nnc(-c3ccccc3)o2)c1=O)c1ccccc1 [Compound 716]
0: Bedstraw plant response rating (bedstraw; [1]) | Bedstraw plant response rating (bedstraw; [2]) | Plant response rating, Bedstraw (bedstraw; Preemergence, scale of 0 to 10 where 0 is no effect and 10 is complete control) | Bedstraw plant response rating (bedstraw; [3]) | Blackgrass plant response rating (blackgrass; [1]) | Blackgrass plant response rating (blackgrass; [2]) | Plant response rating, Blackgrass (blackgrass; [4]) | Blackgrass plant response rating (blackgrass; [3]) | B. signalgrass plant response rating (surinam grass; [1]) | B. signalgrass plant response rating (surinam grass; [2]) | Plant response rating, B. signalgrass (surinam grass; [4]) | B. signalgrass plant response rating (surinam grass; [3]) | Cocklebur plant response rating (cocklebur; [1]) | Cocklebur plant response rating (cocklebur; [2]) | Plant response rating, Cocklebur (cocklebur; [4]) | Cocklebur plant response rating (cocklebur; [3]) | Corn plant response rating (corn; [1]) | Corn plant response rating (corn; [2]) | Plant response rating, Corn (corn; [4]) | Corn plant response rating (corn; [3]) | Crabgrass plant response rating (crabgrass; [1]) | Crabgrass plant response rating (crabgrass; [2]) | Plant response rating, Crabgrass (crabgrass; [4]) | Crabgrass plant response rating (crabgrass; [3]) | Giant foxtail plant response rating (giant foxtail; [1]) | Giant foxtail plant response rating (giant foxtail; [2]) | Plant response rating, Giant foxtail (giant foxtail; [4]) | Giant foxtail plant response rating (giant foxtail; [3]) | Morningglory plant response rating (morningglory; [2]) | Plant response rating, Morningglory (morningglory; [4]) | Morningglory plant response rating (morningglory; [3]) | Redroot pigweed plant response rating (pigweed; [2]) | Plant response rating, Redroot pigweed (pigweed; [4]) | Redroot pigweed plant response rating (pigweed; [3]) | Rape plant response rating (rape; [2]) | Plant response rating, Rape (rape; [4]) | Rape plant response rating (rape; [3]) | Soybean plant response rating (soybean; [2]) | Plant response rating, Soybean (soybean; [4]) | Soybean plant response rating (soybean; [3]) | Sugarbeets plant response rating (sugar beet; [2]) | Plant response rating, Sugarbeets (sugar beet; [4]) | Sugarbeets plant response rating (sugar beet; [3]) | Velvetleaf plant response rating (velvetleaf; [2]) | Plant response rating, Velvetleaf (velvetleaf; [4]) | Velvetleaf plant response rating (velvetleaf; [3]) | Wheat plant response rating (wheat; [2]) | Plant response rating, Wheat (wheat; [4]) | Wheat plant response rating (wheat; [3]) | Wild oats plant response rating (wild oat; [2]) | Plant response rating, Wild oats (wild oat; [4]) | Wild oats plant response rating (wild oat; [3]) | Nutsedge plant response rating (purple nutsedge; [2]) | Plant response rating, Nutsedge (purple nutsedge; [4])

CC(C)N(C(=O)n1oc(=O)n(CCC(F)(F)F)c1=O)c1ccccc1 [Compound 584]
5: Bedstraw plant response rating (bedstraw; [5]) | Plant response rating, Bedstraw (bedstraw; Postemergence, scale of 0 to 10 where 0 is no effect and 10 is complete control) | Blackgrass plant response rating (blackgrass; [5]) | Morningglory plant response rating (morningglory; [6]) | Sugarbeets plant response rating (sugar beet; [6]) | Sugarbeets plant response rating (sugar beet; [8]) | Plant response rating, Velvetleaf (velvetleaf; [10]) | Velvetleaf plant response rating (velvetleaf; [8])
1: Crabgrass plant response rating (crabgrass; [5]) | Morningglory plant response rating (morningglory; [5])
4: Cocklebur plant response rating (cocklebur; [6]) | Plant response rating, Cocklebur (cocklebur; [10]) | Plant response rating, Corn (corn; [10]) | Plant response rating, Morningglory (morningglory; [9]) | Morningglory plant response rating (morningglory; [7]) | Morningglory plant response rating (morningglory; [4]) | Plant response rating, Rape (rape; [9]) | Rape plant response rating (rape; [4]) | Rape plant response rating (rape; [8]) | Plant response rating, Soybean (soybean; [10])
8: Blackgrass plant response rating (0 to 10 scale) (blackgrass; Preemergence, Rate 250 g/ha) | Crabgrass plant response rating (crabgrass; [7]) | Crabgrass plant response rating (crabgrass; [4]) | Plant response rating, Giant foxtail (giant foxtail; [9]) | Giant foxtail plant response rating (giant foxtail; [4]) | Redroot pigweed plant response rating (pigweed; [4]) | Plant response rating, Sugarbeets (sugar beet; [10])
9: Bedstraw plant response rating (bedstraw; [6]) | Bedstraw plant response rating (bedstraw; [7]) | Bedstraw plant response rating (0 to 10 scale) (bedstraw; Preemergence, Rate 250 g/ha) | Bedstraw plant response rating (bedstraw; [8]) | Blackgrass plant response rating (blackgrass; [7]) | Plant response rating, B. signalgrass (surinam grass; [10]) | B. signalgrass plant response rating (surinam grass; [8]) | Plant response rating, Crabgrass (crabgrass; [10]) | Crabgrass plant response rating (crabgrass; [8]) | Giant foxtail plant response rating (giant foxtail; [6]) | Plant response rating, Giant foxtail (giant foxtail; [10]) | Giant foxtail plant response rating (giant foxtail; [7]) | Redroot pigweed plant response rating (pigweed; [8]) | Rape plant response rating (rape; [6]) | Plant response rating, Rape (rape; [10]) | Wild oats plant response rating (wild oat; [8])
0: Cocklebur plant response rating (cocklebur; [5]) | Cocklebur plant response rating (cocklebur; [7]) | Cocklebur plant response rating (cocklebur; [4]) | Cocklebur plant response rating (0 to 10 scale) (cocklebur; Preemergence, Rate 250 g/ha) | Cocklebur plant response rating (cocklebur; [8]) | Corn plant response rating (corn; [5]) | Corn plant response rating (corn; [7]) | Corn plant response rating (corn; [4]) | Soybean plant response rating (soybean; [7]) | Soybean plant response rating (soybean; [4]) | Soybean plant response rating (soybean; [8]) | Sugarbeets plant response rating (sugar beet; [7]) | Velvetleaf plant response rating (velvetleaf; [7]) | Velvetleaf plant response rating (velvetleaf; [4]) | Wheat plant response rating (wheat; [7]) | Wheat plant response rating (wheat; [4]) | Plant response rating, Wild oats (wild oat; [9]) | Wild oats plant response rating (wild oat; [7]) | Nutsedge plant response rating (purple nutsedge; [5]) | Plant response rating, Nutsedge (purple nutsedge; [9]) | Nutsedge plant response rating (purple nutsedge; [6]) | Nutsedge plant response rating (purple nutsedge; [7]) | Nutsedge plant response rating (purple nutsedge; [4]) | Nutsedge plant response rating (purple nutsedge; [8])
10: Giant foxtail plant response rating (giant foxtail; [8])
7: Plant response rating, Blackgrass (blackgrass; [9]) | Blackgrass plant response rating (blackgrass; [6]) | Plant response rating, Blackgrass (blackgrass; [10]) | B. signalgrass plant response rating (surinam grass; [6]) | B. signalgrass plant response rating (surinam grass; [7]) | B. signalgrass plant response rating (surinam grass; [4]) | Plant response rating, Crabgrass (crabgrass; [9]) | Giant foxtail plant response rating (giant foxtail; [5]) | Plant response rating, Redroot pigweed (pigweed; [10]) | Redroot pigweed plant response rating (pigweed; [7]) | Plant response rating, Wild oats (wild oat; [10])
6: Crabgrass plant response rating (crabgrass; [6]) | Plant response rating, Wheat (wheat; [10])
3: B. signalgrass plant response rating (surinam grass; [5]) | Plant response rating, B. signalgrass (surinam grass; [9]) | Corn plant response rating (corn; [6]) | Corn plant response rating (corn; [8]) | Plant response rating, Morningglory (morningglory; [10]) | Morningglory plant response rating (morningglory; [8]) | Rape plant response rating (rape; [5]) | Rape plant response rating (rape; [7]) | Plant response rating, Soybean (soybean; [9]) | Soybean plant response rating (soybean; [6]) | Plant response rating, Velvetleaf (velvetleaf; [9]) | Velvetleaf plant response rating (velvetleaf; [6]) | Wheat plant response rating (wheat; [6]) | Wheat plant response rating (wheat; [8]) | Plant response rating, Nutsedge (purple nutsedge; [10])
2: Plant response rating, Cocklebur (cocklebur; [9]) | Plant response rating, Corn (corn; [9]) | Corn plant response rating (0 to 10 scale) (corn; Preemergence, Rate 250 g/ha) | Plant response rating, Redroot pigweed (pigweed; [9]) | Redroot pigweed plant response rating (pigweed; [6]) | Plant response rating, Sugarbeets (sugar beet; [9]) | Sugarbeets plant response rating (sugar beet; [4]) | Plant response rating, Wheat (wheat; [9]) | Wild oats plant response rating (wild oat; [6]) | Wild oats plant response rating (wild oat; [4])
